Patent publication USRE43879E1, “Use of the dextrogyral enantiomer of milnacipran for the preparation of a drug” (priority 2003, dated 2012)
Like-named read-outs stand apart in the source and are kept apart here.

Assays:
3H-serotonin uptake = target: T1, 3H-serotonin uptake (Rattus norvegicus, UniProt P31652); experiment: Serotonin uptake, rat hypothalamus P2 fraction (synaptosomes); assay type: biochemical
T1 construct: the hypothalamus was removed, weighed and homogenised on a Dounce; from tissue
T1 sequence (P31652 whole entry): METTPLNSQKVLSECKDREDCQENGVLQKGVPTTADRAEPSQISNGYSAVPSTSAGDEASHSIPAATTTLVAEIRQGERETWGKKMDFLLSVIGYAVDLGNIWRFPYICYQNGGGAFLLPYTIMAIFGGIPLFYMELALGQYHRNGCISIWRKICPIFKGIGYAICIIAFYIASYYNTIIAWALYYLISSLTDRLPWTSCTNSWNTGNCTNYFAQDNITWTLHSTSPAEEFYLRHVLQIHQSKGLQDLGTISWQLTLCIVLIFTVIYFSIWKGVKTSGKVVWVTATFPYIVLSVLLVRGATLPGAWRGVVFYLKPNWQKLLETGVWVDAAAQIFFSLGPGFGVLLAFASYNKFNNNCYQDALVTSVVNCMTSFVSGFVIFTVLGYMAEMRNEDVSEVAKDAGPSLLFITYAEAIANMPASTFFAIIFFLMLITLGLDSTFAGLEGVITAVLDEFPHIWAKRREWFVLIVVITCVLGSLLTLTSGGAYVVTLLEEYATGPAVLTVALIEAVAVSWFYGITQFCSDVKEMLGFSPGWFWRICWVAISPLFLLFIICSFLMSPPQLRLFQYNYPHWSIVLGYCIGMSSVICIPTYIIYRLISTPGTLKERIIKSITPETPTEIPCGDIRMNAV
Protocol: After homogenisation of brain tissue in a sucrose solution, the presynaptic terminals break away from the axon and close to form synaptosomes obtained by subcellular fractionation.
Male Sprague-Dawley (Janvier) rats weighing 180-200 g were used.
This homogenate was centrifuged for 10 min at 1,000 g (2,400 rpm-Hettich, Rotenta). […] The residue (called the P2 fraction) was recovered in sucrose at a concentration of 50 mg/ml.
Exactly 5 min after the start of incubation, the reaction was stopped by vacuum filtration on Whatman GF/F filters (predilution with 2.5 ml of chilled buffer then rinsing with 3 times 2.5 ml).
The IC50 were determined by transposing the percentages of inhibition onto a graph in relation to the log of the product concentration (6 concentrations in duplicate).

3H-paroxetine binding = target: T2, 3H-paroxetine binding (Rattus norvegicus, UniProt P31652); experiment: Paroxetine binding, rat hypothalamus membranes
T2 construct: the hypothalamus was removed, weighed and homogenised on a Dounce; from tissue
T2 sequence (P31652 whole entry): as above
Protocol: 2.1.3. Paroxetine Binding
Male Sprague-Dawley rats (Janvier) weighing 180-200 g were used. The hypothalami of several rats were collected and homogenised in 5 ml of chilled buffer (50 mM Tris-HCL, 120 mM NaCl, 5 mM KCl, pH 7.5) on a Dounce, and the homogenate was centrifuged at 30 000 g (27 000 rpm-Beckman. L5-50E, T40 rotor) for 10 min. The residue obtained was recovered in 5 ml of buffer and re-centrifuged under the same conditions. The new residue was recovered in the same buffer and finally re-homogenised on a Dounce at a tissue concentration of 10 mg/ml. The membrane suspension (100 μl) was incubated with 3H-paroxetine (NEN, France, 28.6 Ci/mmol) at a concentration (final) of 0.1 nM, at 20° C., in a final volume of 1 ml for 2 hr. After 2 hr incubation, the reaction was stopped by vacuum filtration on Whatman GF/F filters pre-treated in a 0.05% solution of polyethylenimine 30 min beforehand (prediluted with 4 ml of chilled buffer, then the tube was rinsed with 2 times 4 ml). Radioactivity was measured by liquid scintillation spectrometry (Packard, Tricarb 4640) using Emulsifier-Safe (Packard) as the scintillating agent.
Specific ^3H-paroxetine binding was defined as the difference between total binding and that remaining in the presence of 10 μM of fluoxetine.
The IC50 were determined by transposing the percentages of inhibition onto a graph in relation to the log of the concentration of the product (6 concentrations in duplicate).

3H-norepinephrine uptake [1] = target: T3, 3H-norepinephrine uptake (Rattus norvegicus, UniProt Q63380); conditions: read-out: IC50 3H-Norepinephrine uptake; rat hypothalamus P2, 3H-NE 50 nM, 10 min, 37° C.
T3 sequence (Q63380 1-617): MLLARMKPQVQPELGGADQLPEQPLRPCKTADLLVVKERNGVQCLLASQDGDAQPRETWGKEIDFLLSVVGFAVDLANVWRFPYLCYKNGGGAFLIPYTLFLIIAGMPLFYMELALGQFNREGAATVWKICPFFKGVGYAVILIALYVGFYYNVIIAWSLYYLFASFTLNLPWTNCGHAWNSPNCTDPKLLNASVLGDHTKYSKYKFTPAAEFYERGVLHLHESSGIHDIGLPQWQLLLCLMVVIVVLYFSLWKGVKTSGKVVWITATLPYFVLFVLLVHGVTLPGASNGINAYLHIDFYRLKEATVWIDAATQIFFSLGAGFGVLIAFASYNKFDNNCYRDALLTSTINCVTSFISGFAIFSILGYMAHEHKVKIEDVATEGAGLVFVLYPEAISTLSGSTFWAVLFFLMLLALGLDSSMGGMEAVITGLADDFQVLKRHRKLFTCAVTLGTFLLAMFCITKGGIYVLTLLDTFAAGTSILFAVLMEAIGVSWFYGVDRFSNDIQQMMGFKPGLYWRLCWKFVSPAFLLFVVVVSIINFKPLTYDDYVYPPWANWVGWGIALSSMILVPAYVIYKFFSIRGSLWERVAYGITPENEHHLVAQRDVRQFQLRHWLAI
Protocol: (§1) Norepinephrine Uptake by a Homogenate (P2) of Rat Hypothalamus.
(§2) Male Sprague-Dawley rats, from 200 to 300 g, were stunned and decapitated, and the hypothalami were rapidly removed. Two hypothalami are homogenised in 4 ml of sucrose 0.32 M on a Potter S by 16 complete passes back and forth at 800 rpm, then centrifuged for 10 min at 1,000 g to eliminate cell debris. The supernate is centrifuged for 20 min at 10,000 g and the P2 thus obtained is recovered in 4 ml of sucrose 0.32 M, and homogenised on a Dounce.
(§3) ^3H-(1)-NE: 13 Ci/mmol (Amersham) is used.
(§4) Uptake takes place in a phosphate buffer (containing 8 g of NaCl, 1.21 g of K2HPO4 and 0.34 g of KH2PO4 per liter) pre-oxygenated 30 min before use with a mixture of O2/CO2 (95%/5%).
(§5) In 5-ml plastic tubes placed in a water bath at 37° C., the following are introduced: • 100 μl of buffer or inhibitor, • 700 μl of buffer (containing 25 μM pargyline), • 100 μl of P2.
(§6) After temperature balance, the reaction begins by the addition of 100 μl of ^3H-NE, 50 nM final concentration.
(§7) Exactly 10 min later, the reaction is stopped by adding 2.5 ml of chilled buffer and filtering through GF/F filters. The tube is then rinsed once and the filter once with 2.5 ml of chilled buffer. The filter is then introduced into a Beckman mini-vial and, after adding 3 ml of Instagel (Packard) liquid scintillator, radioactivity is measured with a Tricarb Packard scintillation counter.
(§8) Non-specific uptake (NS) is measured as the presence of DMI 10^−5 M.
(§9) The percentage of inhibition is calculated using the formula:
(§10) The IC50 is determined graphically on the mean curve of percentage of inhibition (4 assays) in relation to the log of the concentration of inhibitor.

[2] = Pharmacokinetic study in man (12 healthy subjects), racemate or one enantiomer alone; assay type: in vivo; conditions: human, plasma; for half-life: read-out: T½ (converted)
Protocol: A pharmacokinetic study in man involving 12 healthy subjects was performed by administering the racemate or one of the two enantiomers alone.

primary rat hepatocytes = experiment: Safe-Hit genomic test of predictive toxicology (Toxicity Index) on primary rat hepatocytes; assay type: cell-based; conditions: 16 h
From the text: After treatment of the primary rat hepatocytes in culture, the RNA was extracted in order to generate labelled complementary-DNA probes which were then hybridised on a membrane containing 682 alternatively-spliced fragments specific to cell stress. A Toxicity Index was obtained for each of the products by comparing the hybridisation profile of the treated cells with that of the untreated cells.
Safe-Hit allows molecules within a chemical series to be ranked according to a Toxic Index, determined after the following basic steps (systematically performed in duplicate for each product): • treatment of the cells lines with the various products at three different concentrations, deduced from a preliminary cytotoxicology test (MTT-assay): a reference concentration corresponding to 80% cell viability, a concentration 10-fold higher—when possible—and a concentration 10-fold lower, • preparation of total RNA and of the corresponding radio-labelled cDNA probes, • hybridisation of the cDNA probes: the Safe-Hit macroarray contains 682 independent clones, corresponding to alterations in gene splicing induced by overexpression of WTp53 (p53 is the most ubiquitous “mediator” of cell stress, chosen for the development of this methodology), • acquisition and determination of the Toxicity Index. 4.1.2. Cells
The cells used in the study (preliminary MTT-assay of cytotoxicity and the main test) are cryopreserved hepatocytes from Sprague-Dawley rats in primary culture (batches Hep184005 and Hep184006-Biopredic), cultured under standard conditions.
The cells are seeded and cultured for 16 hours with each product, at the three concentrations chosen on the basis of the preliminary MTT-assay; two controls (untreated cells in solvent alone) are added to the series.
The results of the two Safe-Hit analyses are then compared and combined to assess the potential toxicity of the various compounds tested. Two parameters that can be modified by the user are involved in the calculation of the Toxicity Index: • Background Threshold (BT) smoothes out weak signals, close to background noise and not attributable to significant gene expression. […] The value of this parameter is usually 2 or less than 2 in order to obtain relevant results. […]
Toxicity Indices (TI) were determined as described above. […] Two separate analyses were performed using two levels of differentiation (Induction Factor-IF) in relation to the untreated controls: • a factor of at least 1.7 in relation to the untreated controls. This factor of 1.7 times represents the weakest value that allows an index not to be obtained in relation to the two untreated controls. • a factor of at least 2 in relation to the untreated controls. This factor of 2 times allows the most robust signals to be taken into account. 4.3.1. Induction Factor of 1.7 in Relation to Untreated Control (Table 7)

[3] = in vivo
From the text: In animals, the pharmacokinetics of each enantiomer were studied following administration of the racemate or of one single enantiomer.

3H-norepinephrine uptake [4] = target: T3, 3H-norepinephrine uptake; experiment: biochemical
Protocol: as §1, §2, §3, §4, §5, §6, §7, §8, §9, §10

[5] = enantiomer administered alone (25 mg)
[6] = enantiomer assayed after F2207 (50 mg)

Compound CCN(CC)C(=O)C1(c2ccccc2)CC1CN (racemic) [F2207, Z(±)-2-(aminomethyl)-N,N-diethyl-1-phenyl cyclopropane carboxamide] has an IC50 (3H-serotonin uptake) of 150 nM, an IC50 (3H-paroxetine binding) of 130 nM and an IC50 (3H-norepinephrine uptake [1]) of 30 nM.
Work on CCN(CC)C(=O)[C@@]1(c2ccccc2)C[C@H]1CN [F2695, Z-(1S,2R)-2-(aminomethyl)-N,N-diethyl-1-phenyl cyclopropane carboxamide] yielded an AUC(0-inf) [2, 5] of 2.87 µM·h, a Cmax [2, 5] of 216 nM and a Tmax [2, 5] of 3.08 h. For the same compound, the half-life [2, 5] was 9.38 h, the AUC(0-inf) [2, 6] was 2.9 µM·h and the Cmax [2, 6] was 214 nM. The Tmax [2, 6] was 3.42 h, the half-life [2, 6] was 9.28 h and the IC50 (3H-serotonin uptake) was 46 nM. For the same compound, the IC50 (3H-paroxetine binding) was 60 nM, the “Clone Q11 (unk), regulation factor vs untreated control” value (primary rat hepatocytes; Sprague-Dawley, rat, 100 μM) was 1.81 and the “Number of down-regulated clones (Down)” value (primary rat hepatocytes; Sprague-Dawley, rat, 100 μM) was 1. For the same compound, the “Number of up-regulated clones (Up)” value (primary rat hepatocytes; Sprague-Dawley, rat, 100 μM) was 1, the “Plasma concentrations of the enantiomers compared” value ([3]; monkey) was “approximately equivalent” and the “Plasma concentrations of the enantiomers compared” value ([3]; rat) was “approximately equivalent”. The IC50 (3H-norepinephrine uptake [4]) was 15 nM.
For CCN(CC)C(=O)[C@]1(c2ccccc2)C[C@@H]1CN [F2696, Z-(1R, 2S)-2-(aminomethyl)-N,N-diethyl-1-phenyl cyclopropane carboxamide], the AUC(0-inf) [2, 5] was 1.54 µM·h, the Cmax [2, 5] was 212 nM and the Tmax [2, 5] was 2.21 h. It also gave a half-life [2, 5] of 5.58 h, an AUC(0-inf) [2, 6] of 1.56 µM·h and a Cmax [2, 6] of 179 nM. It also gave a Tmax [2, 6] of 2.87 h, a half-life [2, 6] of 5.75 h and an IC50 (3H-serotonin uptake) of 600 nM. The IC50 (3H-paroxetine binding) was 700 nM, the “Clone G09 (H. sapiens mitochondrion, cytochrome b), regulation factor vs untreated control” value (primary rat hepatocytes; 100 μM) was 2.09 and the “Clone I01 (H. sapiens mitochondrion, cytochrome c oxidase subunit 1), regulation factor vs untreated control” value (primary rat hepatocytes; 100 μM) was 2.05. The “Clone L01 (H. sapiens divalent cation tolerant protein CUTA mRNA), regulation factor vs untreated control” value (primary rat hepatocytes; 100 μM) was 2.05, the “Clone M07 (H. sapiens mitochondrion, cytochrome c oxidase subunit 1), regulation factor vs untreated control” value (primary rat hepatocytes; 100 μM) was 2.25 and the “Clone M12 (H. sapiens mRNA; cDNA DKFZp564C1563), regulation factor vs untreated control” value (primary rat hepatocytes; 100 μM) was 0.21. The “Clone W17 (H. sapiens mitochondrion, hypoxia inducible gene-14), regulation factor vs untreated control” value (primary rat hepatocytes; 100 μM) was 2.96, the “Clone T08 (H. sapiens mRNA for KIAA1185 protein), regulation factor vs untreated control” value (“Clone T08 … vs untreated control” for short) (primary rat hepatocytes; Sprague-Dawley, rat, 1 μM) was 0.50 and the “Clone U04 (H. sapiens translation initiation factor elF-2alpha mRNA), regulation factor vs untreated control” value (“Clone U04 … vs untreated control” for short) (primary rat hepatocytes; Sprague-Dawley, rat, 1 μM) was 0.57. For the same compound, the “Number of down-regulated clones (Down)” value (primary rat hepatocytes; Sprague-Dawley, rat, 1 μM) was 2, the “Clone AC13 (H. sapiens 7S RNA L gene), regulation factor vs untreated control” value (primary rat hepatocytes; Sprague-Dawley, rat, 10 μM) was 0.22 and the “Clone T08 … vs untreated control” value (primary rat hepatocytes; Sprague-Dawley, rat, 10 μM) was 0.22. The “Clone U04 … vs untreated control” value (primary rat hepatocytes; Sprague-Dawley, rat, 10 μM) was 0.26, the “Clone X02 (unk), regulation factor vs untreated control” value (primary rat hepatocytes; Sprague-Dawley, rat, 10 μM) was 0.29 and the “Number of down-regulated clones (Down)” value (primary rat hepatocytes; Sprague-Dawley, rat, 10 μM) was 5. For the same compound, the “Clone A20 (H. sapiens initiation factor elF-5A gene), regulation factor vs untreated control” value (primary rat hepatocytes; Sprague-Dawley, rat, 100 μM) was 0.56, the “Clone AC13 (H. sapiens 7S RNA L gene), regulation factor vs untreated control” value (primary rat hepatocytes; Sprague-Dawley, rat, 100 μM) was 0.16 and the “Clone C01 (H. sapiens mitochondrion, 16S), regulation factor vs untreated control” value (primary rat hepatocytes; Sprague-Dawley, rat, 100 μM) was 3.20. For the same compound, the “Clone E11 (H. sapiens chlordecone reductase homolog liver, mRNA), regulation factor vs untreated control” value (primary rat hepatocytes; Sprague-Dawley, rat, 100 μM) was 2.12, the “Clone I18 (H. sapiens 18S rRNA gene), regulation factor vs untreated control” value (primary rat hepatocytes; Sprague-Dawley, rat, 100 μM) was 2.38 and the “Clone J03 (H. sapiens CLP mRNA), regulation factor vs untreated control” value (primary rat hepatocytes; Sprague-Dawley, rat, 100 μM) was 2.12. For the same compound, the “Clone L22 (H. sapiens mRNA for Lon protease-like protein), regulation factor vs untreated control” value (primary rat hepatocytes; Sprague-Dawley, rat, 100 μM) was 1.78, the “Clone M23 (Sequence 21 from U.S. Pat. No. 5,851,764), regulation factor vs untreated control” value (primary rat hepatocytes; Sprague-Dawley, rat, 100 μM) was 1.95 and the “Clone P05 (H. sapiens PAC clone DJ404K21 from Xq23), regulation factor vs untreated control” value (primary rat hepatocytes; Sprague-Dawley, rat, 100 μM) was 1.78. For the same compound, the “Clone Q24 (H. sapiens 28S ribosomal RNA gene), regulation factor vs untreated control” value (primary rat hepatocytes; Sprague-Dawley, rat, 100 μM) was 1.77, the “Clone T08 … vs untreated control” value (primary rat hepatocytes; Sprague-Dawley, rat, 100 μM) was 0.20 and the “Clone U04 … vs untreated control” value (primary rat hepatocytes; Sprague-Dawley, rat, 100 μM) was 0.19. For the same compound, the “Clone X02 (unk), regulation factor vs untreated control” value (primary rat hepatocytes; Sprague-Dawley, rat, 100 μM) was 0.20, the “Clone X06 (H. sapiens Genomic sequence from 9q34), regulation factor vs untreated control” value (primary rat hepatocytes; Sprague-Dawley, rat, 100 μM) was 0.16 and the “Clone X23 (unk), regulation factor vs untreated control” value (primary rat hepatocytes; Sprague-Dawley, rat, 100 μM) was 1.92. For the same compound, the “Clone Y17 (H. sapiens 28S ribosomal RNA gene), regulation factor vs untreated control” value (primary rat hepatocytes; Sprague-Dawley, rat, 100 μM) was 2.65, the “Plasma concentrations of the enantiomers compared” value ([3]; monkey) was “approximately equivalent” and the “Plasma concentrations of the enantiomers compared” value ([3]; rat) was “approximately equivalent”. The IC50 (3H-norepinephrine uptake [4]) was 750 nM.
